Experiment [1] concerns the target T1, human FXR alpha (NR1H4) (Homo sapiens, UniProt Q96RI1).
T1 sequence (Q96RI1 1-472 isoform Q96RI1-2): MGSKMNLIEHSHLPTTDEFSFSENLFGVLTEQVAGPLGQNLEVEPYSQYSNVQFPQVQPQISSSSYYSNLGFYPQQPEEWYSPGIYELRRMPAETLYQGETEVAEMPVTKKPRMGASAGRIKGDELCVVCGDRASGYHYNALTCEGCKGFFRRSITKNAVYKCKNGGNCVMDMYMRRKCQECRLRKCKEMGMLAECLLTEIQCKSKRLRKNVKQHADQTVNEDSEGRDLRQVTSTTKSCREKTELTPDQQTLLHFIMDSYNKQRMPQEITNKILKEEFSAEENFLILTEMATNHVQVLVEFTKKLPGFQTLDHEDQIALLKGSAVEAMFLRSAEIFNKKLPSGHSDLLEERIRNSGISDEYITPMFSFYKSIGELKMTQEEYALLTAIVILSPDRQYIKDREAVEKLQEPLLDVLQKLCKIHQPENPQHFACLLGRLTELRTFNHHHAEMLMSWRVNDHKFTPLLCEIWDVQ
Description: In vitro LANCE TR-FRET screening for FXR binding to coactivator TIF2. In kind it is biochemical. Further details: EC50 AVG; other: relative to CDCA control agonist; fused on or other part: GST at the N-terminus (pDest15). The note with it: for Emax: read-out: EFFIC AVG (average efficacy, % activity relative to CDCA control agonist). The text has this:
For screening purposes a fragment of the open reading frame of human FXR alpha (NR1H4-(Acc. No: AF384555)) encoding aminoacids 187–472 was amplified by standard RT PCR procedures (see figures; SEQ ID NO. 1 and 2). Starting material was total RNA derived from human liver. The resulting cDNA obtained after reverse transcription was subsequently cloned using the Gateway™ recombination technology (Invitrogen, USA) into the expression plasmid pDest15 (Invitrogen, USA). This construct was used to express a recombinant GST-FXR fusion protein in E. coli (BL21 strain). A pDEST 17 derivative clone harboring an additional sequence encoding amino acids 548–878 of human TIF2 (Acc. No: XM—011633 RefSeq) was constructed using Gateway™ recombination technology (Invitrogen, USA) in order to obtain a construct which was used to express recombinant His-tagged TIF2 fragment could be expressed in E. coli. For E. coli expression of both constructs, plasmid DNA was transformed into chemically competent E. coli BL21 (Invitrogen, USA) and cells were grown to an OD600 of 0.4–0.7 before expression was induced by addition of 0.5 mM IPTG according instructions of the manufacturer (Invitrogen). After induction for 8 hours at 30° C. cells were harvested by centrifugation for 10 minutes at 5000×g. Fusion proteins were affinity purified using Glutathion sepharose (Pharmacia) or Ni-NTA Agarose (QIAGEN) according to the instructions of the respective manufacturer. Recombinant proteins were dialyzed against 20 mM Tris/HCL pH 7.9; 60 mM KCl; 5 mM MgCl2; 1 mM DTT, 0.2 mM PMSF; 10% glycerol. The TIF2 fragment was subsequently biotinylated by addition of 40–120 μl of a Biotinamidocaproate N-Hydroxysuccinimide-ester (Sigma) solution (20 mg/ml in DMSO). Overhead rotating samples were incubated for 2 hours at room temperature. Unincorporated label was then separated using G25 Gel filtration chromatography (Pharmacia Biotech, Sweden). Protein containing fractions from the column were pooled and tested for activity in the assay as described below.
(§1) For screening of compound libraries as provided for by the methods shown below in the examples for substances which influence the FXR/Tif 2 interaction, the Perkin Elmer LANCE technology was applied. This method relies on the binding dependent energy transfer from a donor to an acceptor fluorophore attached to the binding partners of interest. For ease of handling and reduction of background from compound fluorescence LANCE technology makes use of generic fluorophore labels and time resoved detection (for detailed description see Hemmilä I, Blomberg K and Hurskainen P, Time-resolved resonance energy transfer (TR-FRET) principle in LANCE, Abstract of Papers Presented at the 3 rd Annual Conference of the Society for Biomolecular Screening, September, California (1997).
For screening, 20–200 ng of biotinylated Tif 2 fragment and 10–200 ng of GST-FXR fragment were combined with 0.5–2 nM LANCE Eu-(W1024) labelled anti-GST antibody (Perkin Elmer) and 0.5–2 μg of Highly fluorescent APC-labelled streptavidin (Perkin Elmer) in the presence of 50 μM of individual compounds to be screened in a total volume of 25 μl of 20 mM Tris/HCl pH 7.9; 60 mM KCl; 5 mM MgCl2; 160 ng/μl BSA. DMSO content of the samples was kept below 4%. Samples were incubated for a minimum of 60 minutes in the dark at room temperature in FIA-Plates black 384 well med. binding (Greiner).
The LANCE signal was detected by a Perkin Elmer VICTOR2V™ Multilabel Counter applying the detection parameters listed in Table 1 below. The results were visualized by plotting the ratio between the emitted light at 665 nm and at 615 nm. For every batch of recombinant proteins amount of proteins and labeling reagents giving the most sensitive detection of hits was determined individually by analysis of dose response curves for chenodeoxycholic acid.
On the technique in general: In TR-FRET formats the signal depends on donor and acceptor labels being close together.

For the next experiment, the target named is T2, full length human FXR (Homo sapiens, UniProt Q96RI1).
T2 construct: expressed in transfected cells; host or cells: HEK293, stably transfected with pTRexDest30-hFXR, pTRexDest30-hRXR and pGL2promoter-FXRRE
T2 sequence (Q96RI1 1-472 isoform Q96RI1-2): T1 sequence (Q96RI1 1-472 isoform Q96RI1-2)
T2 sequence (P19793 1-462 partner): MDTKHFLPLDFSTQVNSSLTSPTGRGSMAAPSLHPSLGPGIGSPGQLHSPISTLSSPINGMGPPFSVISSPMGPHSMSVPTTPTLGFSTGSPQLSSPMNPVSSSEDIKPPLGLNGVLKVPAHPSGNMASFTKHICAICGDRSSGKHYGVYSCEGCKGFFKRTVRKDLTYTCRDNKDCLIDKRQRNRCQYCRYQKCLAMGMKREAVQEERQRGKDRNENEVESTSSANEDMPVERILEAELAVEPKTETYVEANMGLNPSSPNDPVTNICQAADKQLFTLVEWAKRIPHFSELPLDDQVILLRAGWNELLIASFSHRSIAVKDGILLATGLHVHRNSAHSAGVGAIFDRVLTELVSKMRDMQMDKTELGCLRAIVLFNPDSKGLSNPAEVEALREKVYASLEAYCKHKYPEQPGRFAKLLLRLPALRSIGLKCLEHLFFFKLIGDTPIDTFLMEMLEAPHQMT
The experiment can be described thus: Cellular gene reporter assay in stable HEK293-FXR reporter cell line (luciferase). In kind it is cell-based. To be noted: HEK293-FXR reporter cells, 16 hours incubation, FIG. 3. The text has this:
This example illustrates that a compound according to the invention can mediate transactivation of FXR mediated transcription in a HEK293 reporter cell line. Experiments shown were done with MOLSTRUCTURE LN 6691 (see structural formula below).
Stable HEK293-FXR reporter cell lines were generated by stably transfecting with the pTRexDest30 (Invitrogen) derivatives pTRexDest30-hFXR, pTRexDest30-hRXR and the pGL2promoter (Promega) derivative pGL2promoter-FXRRE. The full length human FXR (accession U68233) and the full length human RXRα (accession P19793) were cloned into the pTRexDest30 applying the manufacturer protocols for the Gateway™ system (Invitrogen).
The FXR response elements were (upper case and underlined) 5′-cccaGGGTGAaTAACCTcggggctctgtccctccaatcccaGGGTGAaTAACCTcggg 3′ (SEQ ID NO. 5) was created from the human IBAB-P promoter (Grober et al 1999, JBC 274, pp. 29749–29754) and integrated into the reporter plasmid pGL2promoter (Promega) according to standard methods known to those skilled in the art. […] Luciferase reporter activity were determined in triplicates from extracts of cells after incubating cells in culture medium (DMEM [Gibco-BRL]+10% FCS [PAA laboratories]) for 16 hours (5% CO2, 37° C.) containing 0.5% DMSO (control) or 0.5% DMSO with increasing concentrations of LN6691 (FIG. 3).

Experiment [2] has as its target T1, human FXR alpha (NR1H4). Description: In vitro LANCE TR-FRET screening for FXR binding to coactivator TIF2. The experiment is classed as biochemical.
Text: For screening purposes a fragment of the open reading frame of human FXR alpha (NR1H4-(Acc. No: AF384555)) encoding aminoacids 187–472 was amplified by standard RT PCR procedures (see figures; SEQ ID NO. 1 and 2). Starting material was total RNA derived from human liver. The resulting cDNA obtained after reverse transcription was subsequently cloned using the Gateway™ recombination technology (Invitrogen, USA) into the expression plasmid pDest15 (Invitrogen, USA). This construct was used to express a recombinant GST-FXR fusion protein in E. coli (BL21 strain). A pDEST 17 derivative clone harboring an additional sequence encoding amino acids 548–878 of human TIF2 (Acc. No: XM—011633 RefSeq) was constructed using Gateway™ recombination technology (Invitrogen, USA) in order to obtain a construct which was used to express recombinant His-tagged TIF2 fragment could be expressed in E. coli. […]
as §1, with “This method relies on the binding dependent energy transfer from a donor to an acceptor fluorophore attached to the binding partners of interest.” left out, “(1997). […]” for “(1997).”
The LANCE signal was detected by a Perkin Elmer VICTOR2V™ Multilabel Counter applying the detection parameters listed in Table 1 below. […] For every batch of recombinant proteins amount of proteins and labeling reagents giving the most sensitive detection of hits was determined individually by analysis of dose response curves for chenodeoxycholic acid.

The mark [3] stands for this setting: established according to Example 1 (FRET), unit inferred, b76 prints 0.16 μM for the same value, read-out: EC50 AVG.

This is an account of results in patent US7098336B2, “FXR NR1H4 nuclear receptor binding compounds” (Phenex Pharmaceuticals AG, priority 2001, dated 2006).

Molecules are shown by their SMILES. Where two headings read alike, the source gives them in different places.

As to `COc1ccccc1-c1cc(-c2cc(C)ccc2O)nc(NCC2CCC(C(=O)O)CC2)n1` (stereo not shown) [LN0000002683], the EC50 at human FXR alpha (NR1H4) [1] (setting [3]) worked out at 1090 nM. The Emax on human FXR alpha (NR1H4) [1] amounted to 134%.

On to `COc1ccccc1-c1cc(-c2ccccc2O)nc(NCC2CCC(C(=O)O)CC2)n1` (stereo not shown) [LN0000006691], for which, at human FXR alpha (NR1H4) [1] (read-out: EC50 at FXR (half-maximal effective concentration)), the EC50 came to 160 nM. Moreover, at human FXR alpha (NR1H4) [1], the Emax was found to be 125%. In addition, the “relative efficacy compared to GW4064 as control compound” value on full length human FXR is reported as “about 110%”.

`COc1ccccc1-c1cc(-c2ccccc2O)nc(NC[C@H]2CC[C@H](C(=O)O)CC2)n1` [LN0000006691] yielded an EC50 on full length human FXR of 1300 nM.

With `O=C(O)C1CCC(CNc2nc(-c3cccs3)cc(-c3ccccc3O)n2)CC1` (stereo not shown) [LN0000006692], the EC50 at human FXR alpha (NR1H4) [1] (setting [3]) worked out at 1660 nM. Moreover, at human FXR alpha (NR1H4) [1], the Emax amounted to 111%.

`O=C(O)C1CCC(CNc2nc(-c3ccccc3O)cc(-c3ccccc3F)n2)CC1` (stereo not shown) [LN0000007265]: the EC50 at human FXR alpha (NR1H4) [1] (setting [3]) was 530 nM. Further, the Emax on human FXR alpha (NR1H4) [1] worked out at 91%.

Regarding `O=C(O)C1CCC(CNc2nc(-c3ccccc3O)cc(-c3ccccc3F)n2)CC1` (stereo not shown) [formula (5)], at human FXR alpha (NR1H4) [2], the “active as agonists of the NR1H4 human nuclear receptor” value (“active” below) is recorded as “active as agonists”.

Turning to `COc1ccccc1-c1cc(-c2cc(C)ccc2O)nc(NC[C@H]2CC[C@H](C(=O)O)CC2)n1` [formula (6)], the “active” value on human FXR alpha (NR1H4) [2] is listed as “active as agonists”.

Turning to `O=C(O)[C@H]1CC[C@H](CNc2nc(-c3cccs3)cc(-c3ccccc3O)n2)CC1` [formula (7)], the “active” value at human FXR alpha (NR1H4) [2] is on record as “active as agonists”.
